Numbered stars: 1 amine (or outer) side, 2 acyl side, 3 side chain; on linkers, the order of the positions; unused ones are H or OH. Square brackets hold non-standard residues; d marks the D form. Peptide text beside a SMILES is read from it. * marks the point of attachment. β3hPhe(2R-OH) = O=C([C@H](O)[C@H](Cc1ccccc1)N[*:1])[*:2]; Benzoyl(4-COOH) = O=C(O)c1ccc(C(=O)*)cc1; Tetrazole5carbonyl = O=C(c1nn[nH]n1)*; Oxalyl = O=C(C(=O)[*:2])[*:1]; 3Abz = Nc1cccc(C(=O)O)c1; 4Abz = Nc1ccc(C(=O)O)cc1; 2Abz = Nc1ccccc1C(=O)O; Dap = NC[C@H](N)C(=O)O
Biological target: T1, recombinant human BACE-1 (rhBACE-1) (Homo sapiens, UniProt P56817)
T1 construct: expressed as only an extracellular region (amino acid 1-460 residues) of recombinant human β-secretase; His tag (C); purchased R&D systems (Minneapolis, Minn.); host or cells: murine myeloma cell line NS0
T1 sequence (P56817 22-460 limits assumed): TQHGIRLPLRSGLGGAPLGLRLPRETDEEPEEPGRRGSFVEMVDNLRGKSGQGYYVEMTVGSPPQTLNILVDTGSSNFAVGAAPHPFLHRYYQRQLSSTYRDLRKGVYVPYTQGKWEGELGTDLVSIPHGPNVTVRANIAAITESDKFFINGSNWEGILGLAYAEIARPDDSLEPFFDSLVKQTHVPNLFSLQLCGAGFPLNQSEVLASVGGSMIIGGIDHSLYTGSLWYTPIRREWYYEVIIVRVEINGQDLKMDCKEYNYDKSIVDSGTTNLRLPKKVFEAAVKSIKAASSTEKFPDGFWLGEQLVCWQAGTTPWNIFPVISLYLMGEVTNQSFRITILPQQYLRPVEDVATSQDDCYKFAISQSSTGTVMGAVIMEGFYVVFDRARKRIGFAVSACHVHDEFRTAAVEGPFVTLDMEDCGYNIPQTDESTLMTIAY
Assay: BACE1 inhibitory activity, reverse phase HPLC quantitation of N-terminal fragment of fluorogenic substrate
Type: biochemical
Conditions: 1 μL of inhibitor solution in DMSO (100 μM) in 50 μL reaction; MES buffer pH 5.0; 37° C., 60 minutes
Source text: Experiment Regarding Measurement of BACE1 Inhibitory Activity
Enzyme Used in Measurement
As an enzyme having β-secretase activity, recombinant human BACE-1 (rhBACE-1) purchased from R&D systems (Minneapolis, Minn.) was used. rhBACE-1 is expressed as only an extracellular region (amino acid 1-460 residues) of recombinant human β-secretase, with a His tag at its carboxyl terminal in murine myeloma cell line, NS0. Purified secreted rhBACE1 is a mixture of a pro entity (about 75 kDa) and a mature entity (about 72 kDa).
Assessment of Enzyme Inhibitory Activity
Enzyme inhibitory activity of an inhibitor was assessed by quantitating an N-terminal fragment produced aftercleaving the substrate with BACE1 by reverse HPLC using (7-methoxycoumarin-4-yl)acetyl-[…]2,4-dinitrophenyl)-Arg-Arg-NH2 purchased from Peptide Institute (Osaka, Japan) as a substrate for BACE1. To 40 μL of 62.5 mM 2-(N-morpholino)ethansulfonic acid (MES)-CH3COOH—NaOH buffer (pH 5.0), were added 1 μL of a solution of an inhibitor diluted with DMSO (100 μM), 4 μL of rhBACE-1 (6.25 ng/μL), and 5 μL of an aqueous solution (50% DMSO) of 250 μM substrate (7-methoxycoumarin-4-yl)acetyl-[…]2,4-dinitrophenyl)-Arg-Arg-NH2 to initiate an enzyme reaction. After incubation at 37° C. for 60 minutes, 20 μL of 20% trichloroacetic acid was added to stop the reaction. And, inhibition % was calculated by measuring a fluorescent intensity of the N-terminal fragment (Ex, 328 nm; Em, 393 nm) using reverse phase HPLC (linear gradient of MeCN in aqueous TFA; flow rate, 1.0 mL/min).
BACE1 Inhibitory Activity
Enzyme inhibitory activity of an inhibitor was assessed by quantitating a N-terminal fragment produced after cleavage of a substrate with BACE1 by reverse phase HPLC using (7-methoxycoumarin-4-yl)acetyl-[…]2,4-dinitrophenyl)-Arg-Arg-NH2 purchased from Peptide Institute (Osaka, Japan) as a substrate for BACE1. Recombinant human BACE-1 purchased from R&D systems (Minneapolis, Minn.) was used. To 40 μL of 62.5 mM 2-(N-morpholino)ethansulfonic acid (MES)-CH3COOH—NaOH buffer (pH 5.0), were added 1 μL of a solution of an inhibitor diluted with DMSO (100 μM), 4 μL of BACE1 (6.25 ng/μL), and 5 μL of an aqueous solution (50% DMSO) of 250 μM substrate (7-methoxycoumarin-4-yl)acetyl-[…]2,4-dinitrophenyl)-Arg-Arg-NH2 to initiate an enzyme reaction. After incubation at 37° C. for 60 minutes, 20 μL of 20% trichloroacetic acid was added to stop a reaction. Inhibition % was calculated by measuring a fluorescent intensity of the N-terminal fragment (Ex, 328 nm; Em, 393 nm) using reverse phase HPLC (linear gradient of MeCN in aqueous TFA; flow rate, 1.0 mL/min).

CC(C)C[C@H](NC(=O)[C@@H](NC(=O)[C@@H](N)CCC(=O)O)C(C)C)C(=O)N[C@@H](Cc1ccccc1)[C@@H](O)C(=O)N[C@@H](CC(=O)O)C(=O)N[C@@H](C)C(=O)N1CCCCC1C(=O)O (single isomer, unassigned) [Example 94]
inhibition at 2 µM: 61.8%

CC(C)C[C@H](NC(=O)[C@@H](NC(=O)[C@@H](N)CNC(=O)C(=O)O)C(C)C)C(=O)N[C@@H](Cc1ccccc1)[C@@H](O)C(=O)Nc1ccc(C(=O)O)cc1 [Example 68]
inhibition at 100 µM (stock): 98.8%

CC(C)C[C@H](NC(=O)[C@@H](NC(=O)[C@@H](N)CNC(=O)C(=O)O)C(C)C)C(=O)N[C@@H](Cc1ccccc1)[C@@H](O)C(=O)Nc1cccc(C(=O)O)c1 [Example 69]
inhibition at 2 µM: 98.4%

CC(C)C[C@H](NC(=O)[C@@H](NC(=O)[C@@H](N)CNC(=O)C(=O)O)C(C)C)C(=O)N[C@@H](Cc1ccccc1)[C@@H](O)C(=O)N[C@@H](CC(=O)O)C(=O)Nc1cccc(C(=O)O)c1 [Example 70] (H-[Dap](Oxalyl)VL[β3hPhe(2R-OH)]D[3Abz]-OH)
inhibition at 2 µM: 98.3%

CC(C)C[C@H](NC(=O)[C@@H](NC(=O)[C@@H](N)CNC(=O)C(=O)O)C(C)C)C(=O)N[C@@H](Cc1ccccc1)[C@@H](O)C(=O)N[C@@H](CC(=O)O)C(=O)Nc1ccc(C(=O)O)cc1 [Example 71] (H-[Dap](Oxalyl)VL[β3hPhe(2R-OH)]D[4Abz]-OH)
inhibition at 2 µM: 97.9%

CCOC(=O)c1cccc(NC(=O)c2cccc(NC(=O)[C@H](O)[C@H](Cc3ccccc3)NC(=O)[C@H](CC(C)C)NC(=O)[C@@H](NC(=O)[C@@H](N)CCC(=O)O)C(C)C)c2)c1 [Example 72]
inhibition at 2 µM: 95%

CC(C)C[C@H](NC(=O)[C@@H](NC(=O)[C@@H](N)CNC(=O)c1nnn[nH]1)C(C)C)C(=O)N[C@@H](Cc1ccccc1)[C@@H](O)C(=O)N[C@@H](CC(=O)O)C(=O)N[C@@H](C)C(=O)N[C@@H](CCC(=O)O)C(=O)O [Example 73] (H-[Dap](Tetrazole5carbonyl)VL[β3hPhe(2R-OH)]DAE-OH)
inhibition at 2 µM: 93%

CC(C)C[C@H](NC(=O)[C@@H](NC(=O)[C@H](CN)NC(=O)C(=O)O)C(C)C)C(=O)N[C@@H](Cc1ccccc1)[C@@H](O)C(=O)Nc1ccc(C(=O)O)cc1 [Example 74]
inhibition at 100 µM (stock): 90.5%

CC(C)C[C@H](NC(=O)[C@@H](NC(=O)[C@@H](N)CCC(=O)O)C(C)C)C(=O)N[C@@H](Cc1ccccc1)[C@@H](O)C(=O)N[C@@H](CC(=O)O)C(=O)Nc1ccc(C(=O)O)cc1 [Example 76] (H-EVL[β3hPhe(2R-OH)]D[4Abz]-OH)
inhibition at 2 µM: 89.5%

CC(C)C[C@H](NC(=O)[C@@H](NC(=O)[C@H](CN)NC(=O)C(=O)O)C(C)C)C(=O)N[C@@H](Cc1ccccc1)[C@@H](O)C(=O)Nc1cccc(C(=O)O)c1 [Example 77]
inhibition at 2 µM: 87.9%

CC(C)C[C@H](NC(=O)[C@@H](NC(=O)[C@@H](N)CCC(=O)O)C(C)C)C(=O)N[C@@H](Cc1ccccc1)[C@@H](O)C(=O)N[C@@H](CC(=O)O)C(=O)Nc1ccccc1C(=O)O [Example 78] (H-EVL[β3hPhe(2R-OH)]D[2Abz]-OH)
inhibition at 100 µM (stock): 85.8%

CC(C)C[C@H](NC(=O)[C@@H](NC(=O)[C@@H](N)CCC(=O)O)C(C)C)C(=O)N[C@@H](Cc1ccccc1)[C@@H](O)C(=O)N[C@@H](CC(=O)O)C(=O)Nc1cccc(C(=O)O)c1 [Example 79] (H-EVL[β3hPhe(2R-OH)]D[3Abz]-OH)
inhibition at 2 µM: 85.3%

CC(C)C[C@H](NC(=O)[C@@H](NC(=O)[C@@H](N)CCC(=O)O)C(C)C)C(=O)N[C@@H](Cc1ccccc1)[C@@H](O)C(=O)N[C@@H](CC(=O)O)C(=O)N[C@@H](Cc1ccccc1)C(=O)N[C@@H](CCC(=O)O)C(=O)N[C@@H](Cc1ccccc1)C(=O)O [Example 80] (H-EVL[β3hPhe(2R-OH)]DFEF-OH)
inhibition at 2 µM: 83.2%

CC(C)C[C@H](NC(=O)[C@@H](NC(=O)[C@@H](N)CNC(=O)c1ccc(C(=O)O)cc1)C(C)C)C(=O)N[C@@H](Cc1ccccc1)[C@@H](O)C(=O)N[C@@H](CC(=O)O)C(=O)N[C@@H](C)C(=O)N[C@@H](CCC(=O)O)C(=O)O [Example 81] (H-[Dap](Benzoyl(4-COOH))VL[β3hPhe(2R-OH)]DAE-OH)
inhibition at 2 µM: 82.9%
